This is an account of results in patent US12129237B2, “Substituted diaminocarboxamide and diaminocarbonitrile pyrimidines, compositions thereof, and methods of treatment therewith” (SIGNAL PHARMACEUTICALS, LLC, priority 2011, dated 2024).

The assay deals with T1, JNK1 (Homo sapiens, UniProt P45983).
T1 construct: purchased Carna Biosciences
Nature of the assay: JNK1 biochemical assays (one or more of: time resolved fluorescence, Z'-LYTE Cascade, radioactive).

The mark [1] stands for this setting: one or more of the JNK1 biochemical assays, read-out: Act. Level (JNK1 IC50 activity level).
Where [2] appears, read: Table 2, JNK1 IC50 activity level, read-out: Act. Level.
Setting [3] is: tested in one or more of the JNK1 biochemical assays, read-out: Act. Level (JNK1 biochemical assay IC50 activity level).
Setting [4] is: Table 3, JNK1 IC50 activity level, read-out: Act. Level.

Read-outs that look alike come from different tables or passages of the source.

T1 sequence (P45983 whole entry): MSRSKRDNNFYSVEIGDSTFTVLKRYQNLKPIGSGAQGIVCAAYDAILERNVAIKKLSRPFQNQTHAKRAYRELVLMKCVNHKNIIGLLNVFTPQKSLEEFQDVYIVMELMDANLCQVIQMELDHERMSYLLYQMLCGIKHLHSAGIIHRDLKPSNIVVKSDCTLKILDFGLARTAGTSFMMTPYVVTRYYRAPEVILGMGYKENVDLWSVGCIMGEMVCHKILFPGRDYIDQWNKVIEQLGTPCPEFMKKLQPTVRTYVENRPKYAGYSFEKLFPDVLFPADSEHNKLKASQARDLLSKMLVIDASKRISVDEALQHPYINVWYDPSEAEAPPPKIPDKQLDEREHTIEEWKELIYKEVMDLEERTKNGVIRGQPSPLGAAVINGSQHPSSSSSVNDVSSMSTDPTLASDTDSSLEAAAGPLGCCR

Regarding `CCCC(C)(C)Nc1nc(N[C@H]2CC[C@H](OCC)CC2)ncc1C(N)=O` [Example 391, 2-((1r,4r)-4-ethoxycyclohexylamino)-4-(2-methylpentan-2-ylamino)pyrimidine-5-carboxamide], the IC50 under setting [1] was under 200 nM.

In the case of `CC(C)(C)Nc1nc(N[C@@H]2CCC[C@H](O)C2)ncc1C(N)=O` [Example 307, 4-(tert-butylamino)-2-((1R,3S)-3-hydroxycyclohexylamino)pyrimidine-5-carboxamide], the IC50 under setting [1] is under 200 nM.

Turning to `NC(=O)c1cnc(N[C@H]2CCOc3ccccc32)nc1N[C@@H]1CCC[C@H](O)C1` [Example B-78, 2-((S)-chroman-4-ylamino)-4-((1R,3S)-3-hydroxycyclohexylamino)pyrimidine-5-carboxamide], the IC50 under setting [2] was 800 to 1000 nM.

In the case of `CO[C@H]1CC[C@H](Nc2ncc(C(N)=O)c(N[C@@H]3CC[C@H](O)C3)n2)CC1` [Example A-46, 4-((1R,3S)-3-hydroxycyclopentylamino)-2-((1r,4R)-4-methoxycyclohexylamino)pyrimidine-5-carboxamide], the IC50 under setting [3] was under 200 nM.

Turning to `CO[C@H]1CC[C@H](Nc2ncc(C#N)c(N[C@@H]3CC[C@@H](C)C(O)C3)n2)CC1` (stereo partly drawn) [Example C-46, 4-((1R,3R,4R)-3-hydroxy-4-methylcyclohexylamino)-2-((1r,4R)-4-methoxycyclohexylamino) pyrimidine-5-carbonitrile], the IC50 under setting [4] was under 200 nM.

As for `CCO[C@H]1CC[C@H](Nc2ncc(C#N)c(N[C@H]3CC[C@@H](O)CC3)n2)CC1` [Example C-22, 2-((1r,4r)-4-ethoxycyclohexylamino)-4-((1s,4s)-4-hydroxycyclohexylamino) pyrimidine-5-carbonitrile], under setting [4], the IC50 lay in the range of 200 to 800 nM.

Consider `CC(C)CCNc1nc(N[C@H]2CC[C@H](O)CC2)ncc1C#N` [Example C-60, 2-((1r,4r)-4-hydroxycyclohexylamino)-4-(isopentylamino)pyrimidine-5-carbonitrile], for which the IC50 under setting [4] is 1000 to 10000 nM.

As to `CCO[C@H]1CC[C@H](Nc2ncc(C(N)=O)c(N[C@H](C)C(C)C)n2)CC1` [Example 290, 2-((1r,4R)-4-ethoxycyclohexylamino)-4-((R)-3-methylbutan-2-ylamino)pyrimidine-5-carboxamide], the IC50 under setting [1] is under 200 nM.

In the case of `CCC(CC)Nc1nc(N[C@H]2CC[C@H](O)CC2)ncc1C(N)=O` [Example 363, 2-((1r,4r)-4-hydroxycyclohexylamino)-4-(pentan-3-ylamino)pyrimidine-5-carboxamide], the IC50 under setting [1] was under 200 nM.

Consider `NC(=O)c1cnc(N[C@H]2CCCOC2)nc1N[C@@H]1CCC[C@H](O)C1` [Example A-52, 4-((1R,3S)-3-hydroxycyclohexylamino)-2-((S)-tetrahydro-2H-pyran-3-ylamino)pyrimidine-5-carboxamide], for which the IC50 under setting [3] is under 200 nM.

In the case of `NC(=O)c1cnc(N[C@@H]2CCc3cnccc3C2)nc1N[C@@H]1CCC[C@H](O)C1` [Example B-96, 4-((1R,3S)-3-hydroxycyclohexylamino)-2-((R)-5,6,7,8-tetrahydroisoquinolin-6-ylamino)pyrimidine-5-carboxamide], the IC50 under setting [2] was under 200 nM.

Consider `CO[C@H]1CC[C@H](Nc2ncc(C(N)=O)c(NC3CCC3C)n2)CC1` (stereo partly drawn) [Example 243, 2-((1r,4r)-4-methoxycyclohexylamino)-4-(2-methylcyclobutylamino)pyrimidine-5-carboxamide], for which the IC50 under setting [1] is under 200 nM.

For the compound `CO[C@H]1CC[C@H](Nc2ncc(C(N)=O)c(NC3(C)CCCCC3)n2)CC1` [Example 358, 2-((1r,4r)-4-methoxycyclohexylamino)-4-(1-methylcyclohexylamino)pyrimidine-5-carboxamide], under setting [1], the IC50 was under 200 nM.

With `C[C@@H]1CC[C@@H](Nc2nc(N[C@H](C)C3CCC3)ncc2C(N)=O)C[C@H]1O` [Example 459, 2-((R)-1-cyclobutylethylamino)-4-((1R,3R,4R)-3-hydroxy-4-methylcyclohexylamino)pyrimidine-5-carboxamide], under setting [1], the IC50 is under 200 nM.

For the compound `CCO[C@H]1CC[C@H](Nc2ncc(C(N)=O)c(N[C@@H](C)C(C)(C)C)n2)CC1` [Example 276, 4-((S)-3,3-dimethylbutan-2-ylamino)-2-((1r,4S)-4-ethoxycyclohexylamino)pyrimidine-5-carboxamide], under setting [1], the IC50 was under 200 nM.

For `CCCC(C)(C)Nc1nc(N[C@H]2CC[C@H](O)CC2)ncc1C(N)=O` [Example 390, 2-((1r,4r)-4-hydroxycyclohexylamino)-4-(2-methylpentan-2-ylamino)pyrimidine-5-carboxamide], the IC50 under setting [1] was under 200 nM.

Turning to `CN1CCCC1CCNc1ncc(C(N)=O)c(Nc2ccccc2)n1` (stereo not drawn) [Example B-62, 2-(2-(1-methylpyrrolidin-2-yl)ethylamino)-4-(phenylamino)pyrimidine-5-carboxamide], under setting [2], the IC50 was 1000 to 10000 nM.

For the compound `CCO[C@H]1CC[C@H](Nc2ncc(C#N)c(NC3CCCCC3)n2)CC1` [Example C-20, 4-(cyclohexylamino)-2-((1r,4r)-4-ethoxycyclohexylamino) pyrimidine-5-carbonitrile], the IC50 under setting [4] is 200 to 800 nM.

Turning to `CC1(C)CCC(Nc2nc(NC(C)(C)C)ncc2C(N)=O)C(O)C1` (stereo not drawn) [Example 342, 2-(tert-butylamino)-4-(2-hydroxy-4,4-dimethylcyclohexylamino)pyrimidine-5-carboxamide], the IC50 under setting [1] was in the range of 200 to 800 nM.

`CC(C)Nc1nc(N[C@@H]2CCc3ccccc3C2)ncc1C(N)=O` [Example B-83, (R)-4-(isopropylamino)-2-(1,2,3,4-tetrahydronaphthalen-2-ylamino)pyrimidine-5-carboxamide]: the IC50 under setting [2] is under 200 nM.

On to `CO[C@H]1CC[C@H](Nc2ncc(C(N)=O)c(N[C@H]3CC[C@@H](N)CC3)n2)CC1` [Example A-120, 4-((1s,4s)-4-aminocyclohexylamino)-2-((1r,4r)-4-methoxycyclohexylamino)pyrimidine-5-carboxamide], for which the IC50 under setting [3] is under 200 nM.

Regarding `C[C@@H](Nc1nc(NC23CCC(O)(CC2)CC3)ncc1C(N)=O)C1CC1` [Example 408, (R)-4-(1-cyclopropylethylamino)-2-(4-hydroxybicyclo[2.2.2]octan-1-ylamino)pyrimidine-5-carboxamide], under setting [1], the IC50 was under 200 nM.

For the compound `CCO[C@H]1CC[C@H](Nc2ncc(C(N)=O)c(N[C@@H]3CCC[C@@H]3CO)n2)CC1` [Example 209, 2-((1r,4R)-4-ethoxycyclohexylamino)-4-((1R,2S)-2-(hydroxymethyl)cyclopentylamino)pyrimidine-5-carboxamide], the IC50 under setting [1] is under 200 nM.

On to `CCO[C@H]1CC[C@H](Nc2ncc(C(N)=O)c(N[C@H](C)C(C)(C)C)n2)CC1` [Example 277, 4-((R)-3,3-dimethylbutan-2-ylamino)-2-((1r,4R)-4-ethoxycyclohexylamino)pyrimidine-5-carboxamide], for which the IC50 under setting [1] was under 200 nM.

Consider `CC1CCC1Nc1nc(N[C@H]2CC[C@H](O)CC2)ncc1C(N)=O` (stereo partly drawn) [Example 245, 2-((1r,4r)-4-hydroxycyclohexylamino)-4-(2-methylcyclobutylamino)pyrimidine-5-carboxamide], for which the IC50 under setting [1] is under 200 nM.

For the compound `CC(=O)NCCNc1ncc(C(N)=O)c(Nc2ccccc2)n1` [Example B-41, 2-(2-acetamidoethylamino)-4-(phenylamino)pyrimidine-5-carboxamide], under setting [2], the IC50 was in the range of 1000 to 10000 nM.

As for `CC1(Nc2nc(N[C@H]3CCCOC3)ncc2C(N)=O)CCC1` [Example 403, (S)-4-(1-methylcyclobutylamino)-2-(tetrahydro-2H-pyran-3-ylamino)pyrimidine-5-carboxamide], the IC50 under setting [1] is under 200 nM.

`NC(=O)c1cnc(NC2CC2)nc1N[C@H]1CC[C@@H](CO)CC1` [Example A-136, 2-(cyclopropylamino)-4-((1s,4s)-4-(hydroxymethyl)cyclohexylamino)pyrimidine-5-carboxamide]: the IC50 under setting [3] lay in the range of 200 to 800 nM.

For the compound `CC(C)C(C)(C)Nc1ncc(C(N)=O)c(N[C@@H]2CC[C@@H](C)[C@H](O)C2)n1` [Example 366, 2-(2,3-dimethylbutan-2-ylamino)-4-((1R,3R,4R)-3-hydroxy-4-methylcyclohexylamino)pyrimidine-5-carboxamide], under setting [1], the IC50 was under 200 nM.

`COc1ccc(Nc2ncc(C(N)=O)c(Nc3ccccc3)n2)cn1` [Example B-16, 2-(6-methoxypyridin-3-ylamino)-4-(phenylamino)pyrimidine-5-carboxamide]: the IC50 under setting [2] is under 200 nM.

Take `C[C@@H]1CC[C@@H](Nc2nc(NCC3CC3)ncc2C(N)=O)C[C@H]1O` [Example 472, 2-(cyclopropylmethylamino)-4-((1R,3R,4R)-3-hydroxy-4-methylcyclohexylamino)pyrimidine-5-carboxamide]: the IC50 under setting [1] is under 200 nM.

Turning to `CC(C)(C)Nc1ncc(C(N)=O)c(N[C@@H]2CCC[C@](C)(O)C2)n1` [Example 213, 2-(tert-butylamino)-4-((1R,3S)-3-hydroxy-3-methylcyclohexylamino)pyrimidine-5-carboxamide], the IC50 under setting [1] is under 200 nM.

Turning to `NC[C@H]1CC[C@@H](Nc2nc(NC3CCCC3)ncc2C(N)=O)CC1` [Example A-131, 4-((1s,4s)-4-(aminomethyl)cyclohexylamino)-2-(cyclopentylamino)pyrimidine-5-carboxamide], the IC50 under setting [3] was under 200 nM.

Consider `CO[C@H]1CC[C@H](Nc2ncc(C(N)=O)c(N[C@H]3CC[C@@H](C(=O)N(C)C)CC3)n2)CC1` [Example A-118, 4-((1s,4s)-4-(dimethylcarbamoyl)cyclohexylamino)-2-((1r,4r)-4-methoxycyclohexylamino)pyrimidine-5-carboxamide], for which the IC50 under setting [3] is under 200 nM.

For `COCCNc1ncc(C(N)=O)c(Nc2ccccc2)n1` [Example B-69, 2-(2-methoxyethylamino)-4-(phenylamino)pyrimidine-5-carboxamide], under setting [2], the IC50 lay within 800 to 1000 nM.

With `COC[C@H]1CC[C@H](Nc2ncc(C(N)=O)c(N[C@H]3CCC(O)C3)n2)CC1` (stereo partly drawn) [Example A-94, 4-((1S,3R)-3-hydroxycyclopentylamino)-2-((1r,4S)-4-(methoxymethyl)cyclohexylamino)pyrimidine-5-carboxamide], under setting [3], the IC50 is under 200 nM.
